≈ marks a conversion by molar mass, not a printed value.
Experiments:
[1] = target: T1, recombinant human CD73 (hCD73) (Homo sapiens, UniProt P21589); experiment: CD73 activity assay on recombinant human CD73; assay type: biochemical; details: ΔGexp = RT ln Ki
T1 sequence (P21589 27-574): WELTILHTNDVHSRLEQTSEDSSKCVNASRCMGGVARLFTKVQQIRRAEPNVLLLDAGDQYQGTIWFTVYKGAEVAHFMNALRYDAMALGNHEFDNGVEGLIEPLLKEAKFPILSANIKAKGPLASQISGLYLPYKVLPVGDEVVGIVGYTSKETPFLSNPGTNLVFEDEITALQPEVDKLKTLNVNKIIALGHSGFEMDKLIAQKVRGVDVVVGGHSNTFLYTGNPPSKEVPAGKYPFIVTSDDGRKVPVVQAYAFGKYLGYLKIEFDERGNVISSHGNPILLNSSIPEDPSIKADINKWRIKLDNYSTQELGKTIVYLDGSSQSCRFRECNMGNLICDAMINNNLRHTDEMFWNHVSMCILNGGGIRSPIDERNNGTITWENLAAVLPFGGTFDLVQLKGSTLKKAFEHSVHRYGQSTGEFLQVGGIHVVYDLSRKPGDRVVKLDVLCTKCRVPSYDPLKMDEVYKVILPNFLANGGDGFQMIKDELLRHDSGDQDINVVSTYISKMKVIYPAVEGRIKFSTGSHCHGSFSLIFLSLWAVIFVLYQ

[2] = in vitro; details: human, plasma
[3] = Microsomal stability assay, human liver microsomes; assay type: in vitro ADME; details: for Mics (hu) comp remaining 60 min: 10 μM; for microsomal CLint at 10 µM: pooled liver microsomes, pH 7.4, read-out: Mics (hu) CLint
[4] = Plasma protein binding, equilibrium dialysis, human plasma; assay type: in vitro ADME; details: undiluted plasma, human plasma protein binding, read-out: PPB (hu) (converted)
Procedure: (§1) Plasma protein binding of the investigated compounds was determined using equilibrium dialysis in single-use Rapid Equilibrium Dialysis devices with an 8 kDa molecular weight cutoff (Thermo Fisher Scientific), following the manufacturer’s protocol. In brief, 50 μL of undiluted human plasma (Biowest), spiked with the test compound at a final concentration of 100 μM, was added to the sample chamber, while 300 μL of phosphate-buffered saline (PBS) was placed in the buffer chamber. Devices were incubated for 4 h at 37 °C with gentle shaking.
(§2) After dialysis, 7.5 μL aliquots from both the plasma and buffer chambers were transferred directly into wells of a 384-well plate. To equalize the matrices for downstream processing, 7.5 μL of PBS was added to each plasma aliquot, and 7.5 μL of plasma was added to each buffer aliquot. Proteins were precipitated by adding four volumes of ice-cold methanol to each well, followed by thorough mixing and incubation at – 20 °C for 30 min. Plates were then stored overnight at 8 °C. Prior to analysis, the plate was centrifuged at 2,000 × g for 20 min at 8 °C. […] The fraction of unbound compound was calculated using the following equations: %Free=c(bufferchamber)/c(plasmachamber)*100% %Bound=100%−%Free

[5] = Kinetic solubility in PBS; assay type: physicochemical; details: phosphate-buffered saline, pH 7.4, aqueous buffer, kinetic from dmso stock
Procedure: Test compounds were prepared as 10 mM stock solutions in DMSO and diluted in phosphate-buffered saline (PBS, pH 7.4) to a 100 μM solution, which was then aliquoted in duplicate. The duplicate samples were incubated in Multiscreen PCF Filter Plates (Merck Millipore) with sealed bottom at room temperature on a shaker for 2 h to allow equilibration. Following incubation, the samples were centrifuged into nonsterile, flat-bottom 96-well plates at 2,200 RCF for 12 min. Supernatants were then diluted 1:99 in a solution of 50% acetonitrile containing 0.1% DMSO. The diluted samples were transferred to 384-well Echo plates, which contained prespotted calibration standards prepared by Echo transfer of 10 mM and 1 mM DMSO stock solutions, resulting in calibration points ranging from 0.05 to 4 μM. Samples and standards were subsequently analyzed by Echo-MS.

[6] = in vitro; details: mouse, plasma
[7] = tested on: nonmalignant human dermal fibroblasts (NHDF); experiment: In vitro cytotoxic activity; assay type: cell-based
Procedure: (§3) All the compounds were also tested for their in vitro cytotoxic activity on a small panel of four cancer cell lines (CCRF-CEM, HepG2, HeLa S3, HL-60) and nonmalignant human dermal fibroblasts (NHDF).

[8] = tested on: HL-60; experiment: In vitro cytotoxic activity; assay type: cell-based; details: Homo sapiens
Procedure: as §3

[9] = tested on: HepG2; experiment: In vitro cytotoxic activity; assay type: cell-based; details: Homo sapiens
Procedure: as §3

[10] = tested on: CCRF-CEM; experiment: In vitro cytotoxic activity; assay type: cell-based; details: Homo sapiens
Procedure: as §3

[11] = tested on: HeLa S3; experiment: In vitro cytotoxic activity; assay type: cell-based; details: Homo sapiens
Procedure: as §3

[12] = Microsomal stability assay, mouse liver microsomes; assay type: in vitro ADME; details: for Mics (m) comp remaining 60 min: 10 μM; for microsomal CLint at 10 µM: pooled liver microsomes, pH 7.4, read-out: Mics (m) CLint
[13] = Plasma protein binding, mouse plasma; assay type: in vitro ADME; details: mouse, plasma, mouse plasma protein binding; read-out: PPB (m) (converted)
Procedure: as §1, §2

SMILES | dG_exp, experimental binding free energy [1] | half-life at 10 µM [2] | Mics (hu) comp remaining 60 min [3] | microsomal CLint at 10 µM [3] | fraction unbound at 4 h, 100 µM [4] | solubility at 2 h [5] | half-life at 10 µM [6] | IC50 [7] | IC50 [8] | IC50 [9] | IC50 [10] | IC50 [11] | Mics (m) comp remaining 60 min [12] | microsomal CLint at 10 µM [12] | fraction unbound at 4 h, 100 µM [13]
O=P(O)(O)CP(=O)(O)OC[C@H]1O[C@@H](n2ccc3c(-c4cccc5c4OCCC5)ncnc32)[C@H](O)[C@@H]1O [4A.13] | –12.8 kcal/mol | > 2 h | 96% | 1 µL/min/mg | 0.108 | 81 µM (≈ 43.9 µg/mL) | > 2 h | > 10 µM | > 10 µM | > 10 µM | > 10 µM | > 10 µM | 94% | 1 µL/min/mg | 0.594
Cc1nc(-c2cccc3c2CCCC3)c2ccn([C@@H]3O[C@H](COP(=O)(O)CP(=O)(O)O)[C@@H](O)[C@H]3O)c2n1 [18E.12] | –14.4 kcal/mol | > 2 h | 108% | < 1 µL/min/mg | 0.022 | 80 µM (≈ 44.3 µg/mL) | > 2 h | > 10 µM | > 10 µM | > 10 µM | > 10 µM | > 10 µM | 106% | < 1 µL/min/mg | 0.323
O=P(O)(O)CP(=O)(O)OC[C@H]1O[C@@H](n2ccc3c(-c4ccc5c(c4)CCO5)ncnc32)[C@H](O)[C@@H]1O [4A.14] | –12.9 kcal/mol | > 2 h | 112% | < 1 µL/min/mg | 0.062 | > 100 µM | > 2 h | 5.6 µM | 6.6 µM | 6.3 µM | > 10 µM | > 10 µM | 94% | 3 µL/min/mg | 0.547
Nc1nc(-c2ccc3ccccc3c2)c2ccn([C@@H]3O[C@H](COP(=O)(O)CP(=O)(O)O)[C@@H](O)[C@H]3O)c2n1 [11C.7] | –13.8 kcal/mol | > 2 h | 100% | < 1 µL/min/mg | 0.037 | > 100 µM | > 2 h | > 10 µM | > 10 µM | > 10 µM | > 10 µM | > 10 µM | 97% | 2 µL/min/mg | 0.305
O=P(O)(O)CP(=O)(O)OC[C@H]1O[C@@H](n2ccc3c(-c4ccc5cncnc5c4)ncnc32)[C@H](O)[C@@H]1O [4A.22] | –12.9 kcal/mol | > 2 h | 92% | 4 µL/min/mg | 0.113 | 66 µM (≈ 35.5 µg/mL) | > 2 h | > 10 µM | 4.8 µM | > 10 µM | 9.9 µM | > 10 µM | 101% | < 1 µL/min/mg | 0.948
Nc1nc(-c2cccc3c2CCCC3)c2ccn([C@@H]3O[C@H](COP(=O)(O)CP(=O)(O)O)[C@@H](O)[C@H]3O)c2n1 [11C.12] | –13.9 kcal/mol | > 2 h | 101% | < 1 µL/min/mg | 0.157 | 88 µM (≈ 48.8 µg/mL) | > 2 h | > 10 µM | > 10 µM | > 10 µM | > 10 µM | > 10 µM | 100% | < 1 µL/min/mg | 0.445

From PMC12797170, “Potent Competitive Inhibitors of Ecto-5′-nucleotidase (CD73) based on 6‑(Het)aryl-7-deazapurine Ribonucleoside 5′‑O‑Bisphosphonates” (ACS Pharmacology & Translational Science, 2025)
